Data taken from PubChem BioAssay AID256 (DTP/NCI, 2004).
Values joined by “and” are separate entries in the source; they are usually repeats but may differ in a detail not shown here. Equal values may be shown once. Toxic doses and inconclusive results are not listed.

Tested on: CD2F1 mice, L1210 leukemia ip, survival T/C
Assay: NCI In Vivo Anticancer Drug Screen. Data for tumor model L1210 Leukemia (intraperitoneal) in CD2F1 (CDF1) mice
Details: higher = longer survival
Procedure, shortened: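 Vehicle-treated tumor-bearing mice served as controls (C) for compound-treated mice (T). Reported figure is T divided by C.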

## COc1cc(NS(C)(=O)=O)ccc1Nc1c2ccccc2nc2ccccc12
endpoint: mean survival time, dose: 1.0 mg/kg/injection, schedule: Q01DX009 (ip), vehicle: saline
  T/C: 110 % of control
endpoint: mean survival time, dose: 1.0 mg/kg/injection, schedule: Q01DX009 (sc), vehicle: saline
  T/C: 101 % of control
endpoint: mean survival time, dose: 1.8 mg/kg/injection, schedule: Q01DX009 (ip), vehicle: other
  T/C: 185 % of control
endpoint: mean survival time, dose: 2.0 mg/kg/injection, schedule: Q01DX009 (sc), vehicle: saline
  T/C: 104 % of control
endpoint: mean survival time, dose: 2.0 mg/kg/injection, schedule: Q03HX008 (ip), vehicle: saline
  T/C: 150 % of control
endpoint: mean survival time, dose: 2.0 mg/kg/injection, schedule: Q03HX024 (ip), vehicle: saline
  T/C: 151 % of control
endpoint: mean survival time, dose: 3.75 mg/kg/injection, schedule: Q01DX009 (ip), vehicle: other
  T/C: 173 % of control and 174 % of control
endpoint: mean survival time, dose: 3.75 mg/kg/injection, schedule: Q04DX003 (ip), vehicle: other
  T/C: 98 % of control
endpoint: mean survival time, dose: 4.0 mg/kg/injection, schedule: Q01DX009 (ip), vehicle: saline
  T/C: 155 % of control and 218 % of control and 161 % of control
endpoint: mean survival time, dose: 4.0 mg/kg/injection, schedule: Q01DX009 (oral), vehicle: saline
  T/C: 102 % of control
endpoint: mean survival time, dose: 4.0 mg/kg/injection, schedule: Q01DX009 (sc), vehicle: saline
  T/C: 113 % of control
endpoint: mean survival time, dose: 4.0 mg/kg/injection, schedule: Q03HX008 (ip), vehicle: saline
  T/C: 164 % of control
endpoint: mean survival time, dose: 4.0 mg/kg/injection, schedule: Q03HX016 (ip), vehicle: saline
  T/C: 346 % of control
endpoint: mean survival time, dose: 4.0 mg/kg/injection, schedule: Q03HX024 (ip), vehicle: saline
  T/C: 122 % of control
endpoint: mean survival time, dose: 7.5 mg/kg/injection, schedule: Q01DX009 (ip), vehicle: other
  T/C: 91 % of control and 93 % of control
endpoint: mean survival time, dose: 7.5 mg/kg/injection, schedule: Q04DX003 (ip), vehicle: other
  T/C: 150 % of control
endpoint: mean survival time, dose: 8.0 mg/kg/injection, schedule: Q01DX009 (oral), vehicle: saline
  T/C: 113 % of control
endpoint: mean survival time, dose: 8.0 mg/kg/injection, schedule: Q03HX008 (ip), vehicle: saline
  T/C: 86 % of control
endpoint: mean survival time, dose: 8.0 mg/kg/injection, schedule: Q03HX016 (ip), vehicle: saline
  T/C: 93 % of control
endpoint: mean survival time, dose: 15.0 mg/kg/injection, schedule: Q01DX001 (ip), vehicle: other
  T/C: 154 % of control
endpoint: mean survival time, dose: 15.0 mg/kg/injection, schedule: Q04DX003 (ip), vehicle: other
  T/C: 124 % of control and 221 % of control
endpoint: mean survival time, dose: 16.0 mg/kg/injection, schedule: Q01DX001 (sc), vehicle: saline
  T/C: 112 % of control
endpoint: mean survival time, dose: 16.0 mg/kg/injection, schedule: Q01DX009 (oral), vehicle: saline
  T/C: 102 % of control
endpoint: mean survival time, dose: 16.0 mg/kg/injection, schedule: Q01DX009 (sc), vehicle: saline
  T/C: 101 % of control
endpoint: mean survival time, dose: 16.0 mg/kg/injection, schedule: Q04DX003 (ip), vehicle: saline
  T/C: 150 % of control
endpoint: mean survival time, dose: 32.0 mg/kg/injection, schedule: Q01DX001 (sc), vehicle: saline
  T/C: 117 % of control
endpoint: mean survival time, dose: 32.0 mg/kg/injection, schedule: Q01DX009 (oral), vehicle: saline
  T/C: 93 % of control
endpoint: mean survival time, dose: 32.0 mg/kg/injection, schedule: Q04DX003 (ip), vehicle: saline
  T/C: 153 % of control
endpoint: mean survival time, dose: 64.0 mg/kg/injection, schedule: Q01DX001 (oral), vehicle: saline
  T/C: 109 % of control
endpoint: mean survival time, dose: 64.0 mg/kg/injection, schedule: Q01DX001 (sc), vehicle: saline
  T/C: 119 % of control
endpoint: mean survival time, dose: 64.0 mg/kg/injection, schedule: Q08DX002 (ip), vehicle: saline
  T/C: 154 % of control
endpoint: mean survival time, dose: 128.0 mg/kg/injection, schedule: Q01DX001 (ip), vehicle: saline
  T/C: 92 % of control
endpoint: mean survival time, dose: 128.0 mg/kg/injection, schedule: Q01DX001 (oral), vehicle: saline
  T/C: 114 % of control
endpoint: mean survival time, dose: 128.0 mg/kg/injection, schedule: Q01DX001 (sc), vehicle: saline
  T/C: 117 % of control
endpoint: mean survival time, dose: 256.0 mg/kg/injection, schedule: Q01DX001 (oral), vehicle: saline
  T/C: 104 % of control
endpoint: mean survival time, dose: 256.0 mg/kg/injection, schedule: Q01DX001 (sc), vehicle: saline
  T/C: 118 % of control
endpoint: mean survival time, dose: 512.0 mg/kg/injection, schedule: Q01DX001 (oral), vehicle: saline
  T/C: 112 % of control
endpoint: median survival time, dose: 0.25 mg/kg/injection, schedule: Q01DX009 (sc), vehicle: other
  T/C: 112 % of control
endpoint: median survival time, dose: 0.25 mg/kg/injection, schedule: Q03HX016 (ip), vehicle: other
  T/C: 118 % of control
endpoint: median survival time, dose: 0.5 mg/kg/injection, schedule: Q01DX009 (sc), vehicle: other
  T/C: 112 % of control
endpoint: median survival time, dose: 1.0 mg/kg/injection, schedule: Q01DX009 (ip), vehicle: saline with Tween-80
  T/C: 165 % of control
endpoint: median survival time, dose: 1.0 mg/kg/injection, schedule: Q01DX009 (oral), vehicle: other
  T/C: 100 % of control
endpoint: median survival time, dose: 1.0 mg/kg/injection, schedule: Q01DX009 (sc), vehicle: other
  T/C: 112 % of control
endpoint: median survival time, dose: 1.0 mg/kg/injection, schedule: Q03HX008 (ip), vehicle: other
  T/C: 162 % of control
endpoint: median survival time, dose: 1.0 mg/kg/injection, schedule: Q03HX016 (ip), vehicle: other
  T/C: 150 % of control
endpoint: median survival time, dose: 1.0 mg/kg/injection, schedule: Q03HX024 (ip), vehicle: other
  T/C: 175 % of control
endpoint: median survival time, dose: 2.0 mg/kg/injection, schedule: Q01DX001 (ip), vehicle: other
  T/C: 118 % of control
endpoint: median survival time, dose: 2.0 mg/kg/injection, schedule: Q01DX001 (sc), vehicle: other
  T/C: 112 % of control
endpoint: median survival time, dose: 2.0 mg/kg/injection, schedule: Q01DX009 (ip), vehicle: other
  T/C: 150 % of control and 161 % of control
endpoint: median survival time, dose: 2.0 mg/kg/injection, schedule: Q01DX009 (oral), vehicle: other
  T/C: 100 % of control
endpoint: median survival time, dose: 2.0 mg/kg/injection, schedule: Q03HX008 (ip), vehicle: other
  T/C: 181 % of control
endpoint: median survival time, dose: 2.0 mg/kg/injection, schedule: Q03HX016 (ip), vehicle: other
  T/C: 181 % of control
endpoint: median survival time, dose: 2.0 mg/kg/injection, schedule: Q04DX003 (ip), vehicle: other
  T/C: 120 % of control
endpoint: median survival time, dose: 2.59 mg/kg/injection, schedule: Q04DX003 (ip), vehicle: other
  T/C: 124 % of control
endpoint: median survival time, dose: 4.0 mg/kg/injection, schedule: Q01DX001 (sc), vehicle: other
  T/C: 112 % of control
endpoint: median survival time, dose: 4.0 mg/kg/injection, schedule: Q01DX009 (ip), vehicle: other
  T/C: 193 % of control and 200 % of control
endpoint: median survival time, dose: 4.0 mg/kg/injection, schedule: Q01DX009 (ip), vehicle: saline with Tween-80
  T/C: 151 % of control (2×) and 163 % of control
endpoint: median survival time, dose: 4.0 mg/kg/injection, schedule: Q01DX009 (oral), vehicle: other
  T/C: 112 % of control
endpoint: median survival time, dose: 4.0 mg/kg/injection, schedule: Q01DX009 (sc), vehicle: other
  T/C: 150 % of control
endpoint: median survival time, dose: 8.0 mg/kg/injection, schedule: Q01DX001 (oral), vehicle: other
  T/C: 112 % of control
endpoint: median survival time, dose: 8.0 mg/kg/injection, schedule: Q01DX001 (sc), vehicle: other
  T/C: 112 % of control
endpoint: median survival time, dose: 8.0 mg/kg/injection, schedule: Q01DX009 (ip), vehicle: other
  T/C: 87 % of control and 88 % of control
endpoint: median survival time, dose: 8.0 mg/kg/injection, schedule: Q01DX009 (oral), vehicle: other
  T/C: 150 % of control
endpoint: median survival time, dose: 8.0 mg/kg/injection, schedule: Q01DX009 (sc), vehicle: other
  T/C: 112 % of control
endpoint: median survival time, dose: 8.0 mg/kg/injection, schedule: Q04DX003 (ip), vehicle: other
  T/C: 181 % of control
endpoint: median survival time, dose: 8.0 mg/kg/injection, schedule: Q08DX002 (ip), vehicle: other
  T/C: 156 % of control
endpoint: median survival time, dose: 12.0 mg/kg/injection, schedule: Q04DX003 (ip), vehicle: other
  T/C: 186 % of control
endpoint: median survival time, dose: 16.0 mg/kg/injection, schedule: Q01DX009 (ip), vehicle: other
  T/C: 90 % of control
endpoint: median survival time, dose: 16.0 mg/kg/injection, schedule: Q01DX009 (oral), vehicle: other
  T/C: 87 % of control
endpoint: median survival time, dose: 16.0 mg/kg/injection, schedule: Q01DX009 (sc), vehicle: other
  T/C: 87 % of control
endpoint: median survival time, dose: 16.0 mg/kg/injection, schedule: Q04DX003 (ip), vehicle: other
  T/C: 150 % of control and 175 % of control
endpoint: median survival time, dose: 16.0 mg/kg/injection, schedule: Q08DX002 (ip), vehicle: other
  T/C: 175 % of control
endpoint: median survival time, dose: 20.0 mg/kg/injection, schedule: Q04DX003 (ip), vehicle: other
  T/C: 98 % of control
endpoint: median survival time, dose: 32.0 mg/kg/injection, schedule: Q04DX003 (ip), vehicle: other
  T/C: 106 % of control
endpoint: median survival time, dose: 64.0 mg/kg/injection, schedule: Q01DX001 (oral), vehicle: other
  T/C: 150 % of control
endpoint: median survival time, dose: 64.0 mg/kg/injection, schedule: Q01DX001 (sc), vehicle: other
  T/C: 156 % of control
endpoint: median survival time, dose: 128.0 mg/kg/injection, schedule: Q01DX001 (sc), vehicle: other
  T/C: 118 % of control

## O=C(O)C1CCC(NCc2ccccc2)CC1 (centres undefined)
endpoint: mean survival time, dose: 100.0 mg/kg/injection, schedule: Q01DX009 (ip), vehicle: Klucel (hydroxypropylcellulose) (HPC)
  T/C: 100 % of control
endpoint: mean survival time, dose: 200.0 mg/kg/injection, schedule: Q01DX009 (ip), vehicle: Klucel (hydroxypropylcellulose) (HPC)
  T/C: 100 % of control
endpoint: mean survival time, dose: 400.0 mg/kg/injection, schedule: Q01DX009 (ip), vehicle: Klucel (hydroxypropylcellulose) (HPC)
  T/C: 111 % of control

## O=S(=O)(O)c1ccc2ncccc2c1
endpoint: mean survival time, dose: 50.0 mg/kg/injection, schedule: Q04DX002 (ip), vehicle: saline with Tween-80
  T/C: 111 % of control

## CCOC(=O)N1N(C(=O)c2ccccc2)C(=O)CC1(C)C
endpoint: mean survival time, dose: 100.0 mg/kg/injection, schedule: Q01DX001 (ip), vehicle: other
  T/C: 95 % of control
endpoint: mean survival time, dose: 200.0 mg/kg/injection, schedule: Q01DX001 (ip), vehicle: other
  T/C: 116 % of control
endpoint: mean survival time, dose: 400.0 mg/kg/injection, schedule: Q01DX001 (ip), vehicle: other
  T/C: 98 % of control
